Target: PDE4B (Homo sapiens, UniProt Q07343)
Assay: Scintillation Proximity Assay (SPA) of PDE4B enzyme activity ([H3]-cAMP cleavage)
Assay type: biochemical
Settings: test substance 1 μM
Experimental: The inhibitions (in %) at 1 μM of the individual Example substances are given in the following Table of Examples and were determined as follows:
The Scintillation Proximity Assay (SPA) (GE Healthcare, No. TRKQ7090) was carried out by using the different affinities of cyclic 3′-5′-adenosinemonophosphate (cAMP, low affinity) and linear 5′-adenosinemonophosphate (AMP, high affinity) for yttrium silicate scintillator beads. The cAMP specific phosphodiesterase (PDE) PDE4B cleaves the 3′-phosphoester bond of tritium-labelled [H3]-cAMP to form [H3]-5′-AMP. This [H3]-AMP accumulates on the scintillator beads because of its higher affinity for them and causes scintillation events (flashes of light) which are measured in a Wallac Microbeta Scintillation Counter.
The experiment starts with a one-hour incubation of [H3]-cAMP with the PDE4B enzyme in assay buffer at 30° C., in each case once with the Example substance to be tested (in a concentration of 1 μM) and once without the Example substance to be tested.
After this incubation, the reaction is stopped by the addition of the beads. The beads have an opportunity to settle in the next 45 minutes, then the measurement is carried out in the Scintillation Counter. If the substance is capable of inhibiting the enzymatic activity of the PDE4B, less [H3]-AMP is produced during the incubation phase and fewer scintillation events can be measured.

[1] = one-hour incubation with [H3]-cAMP at 30° C.
[2] = one-hour incubation of [H3]-cAMP with PDE4B enzyme at 30° C.

PDE4B, sequence (Q07343 whole entry, species assumed): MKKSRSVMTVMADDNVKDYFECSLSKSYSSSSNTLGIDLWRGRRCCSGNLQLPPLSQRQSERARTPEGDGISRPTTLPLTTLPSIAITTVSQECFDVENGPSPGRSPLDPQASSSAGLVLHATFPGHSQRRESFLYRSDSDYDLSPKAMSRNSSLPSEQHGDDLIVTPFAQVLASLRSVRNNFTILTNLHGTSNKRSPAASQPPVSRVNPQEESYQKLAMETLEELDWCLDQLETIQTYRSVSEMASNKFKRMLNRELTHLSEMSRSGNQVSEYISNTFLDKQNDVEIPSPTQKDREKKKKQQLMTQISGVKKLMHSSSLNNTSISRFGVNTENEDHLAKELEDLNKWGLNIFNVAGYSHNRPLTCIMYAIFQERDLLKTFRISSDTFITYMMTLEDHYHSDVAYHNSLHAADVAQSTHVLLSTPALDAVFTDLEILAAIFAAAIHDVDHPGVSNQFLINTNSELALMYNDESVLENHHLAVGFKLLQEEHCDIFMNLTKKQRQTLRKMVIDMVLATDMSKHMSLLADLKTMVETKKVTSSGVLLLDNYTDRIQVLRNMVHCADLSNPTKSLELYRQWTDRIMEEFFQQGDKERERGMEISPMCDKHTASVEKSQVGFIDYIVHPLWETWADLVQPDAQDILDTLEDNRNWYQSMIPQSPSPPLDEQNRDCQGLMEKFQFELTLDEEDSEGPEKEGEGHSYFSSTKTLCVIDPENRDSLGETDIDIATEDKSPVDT

| inhibition at 1 µM [1] | inhibition at 1 µM [2] | Structure (SMILES) |
| --- | --- | --- |
| 92% |  | [O-][S+]1CCc2nc(N3CCC(CO)(c4ccc(Cl)cc4)CC3)nc(NC3(CO)CC3)c21 (stereo not drawn) [Example 301] |
| 89% |  | COC1(c2ccc(Cl)cc2)CCN(c2nc3c(c(N[C@@H](CO)C(C)C)n2)[S+]([O-])CC3)CC1 (stereo partly drawn) [Example 315] |
| 95% |  | CN1C[C@@H](Nc2nc(N3CCC(CN(C)S(C)(=O)=O)(c4ccccc4)CC3)nc3c2[S+]([O-])CC3)CCC1=O (stereo partly drawn) [Example 270, N-methyl-N-{1-[4-(1-methyl-6-oxo-piperidin-3-ylamino)-5-oxo-6,7-dihydro-5H-5λ^4-thieno[3,2-d]pyrimidin-2-yl]-4-phenylpiperidin-4-ylmethyl}-methanesulphonamide] |
|  | 94% | CN1C[C@@H](Nc2nc(N3CCC(c4ccc(Cl)cc4)CC3)nc3c2[S+]([O-])CC3)CCC1=O (stereo partly drawn) [Example 5, (S)-5-{2-[4-(4-chlorophenyl)-piperidin-1-yl]-5-oxo-6,7-dihydro-5H-5λ^4-thieno[3,2-d]pyrimidin-4-ylamino}-1-methylpiperidin-2-one] |
| 95% |  | [O-][S+]1CCc2nc(N3CCC(c4nc(-c5ccccc5)c(-c5ccccc5)o4)CC3)nc(NC3(CO)CC3)c21 (stereo not drawn) [Example 280] |
| 89% |  | [O-][S+]1CCc2nc(N3CCC(O)(c4ccc(Cl)cc4)CC3)nc(NC3CCOCC3)c21 (stereo not drawn) [Example 288] |
| 94% |  | O=C(c1cccc(C2CCN(c3nc4c(c(NC5CCOCC5)n3)[S+]([O-])CC4)CC2)c1)N(C1CCOCC1)C1CC1 (stereo not drawn) [Example 257] |
| 92% |  | [O-][S+]1CCc2nc(N3CCC(Oc4ccc(Cl)cc4)CC3)nc(NC3CCOCC3)c21 (stereo not drawn) [Example 271] |
|  | 96% | CN1C[C@@H](Nc2nc(N3CCC(c4ccncc4)CC3)nc3c2[S+]([O-])CC3)CCC1=O (stereo partly drawn) [Example 48] |
|  | 96% | CN1C[C@@H](Nc2nc(N3CCC(c4ccc(C#N)cc4)CC3)nc3c2[S+]([O-])CC3)CCC1=O (stereo partly drawn) [Example 49] |
|  | 97% | [O-][S+]1CCc2nc(N3CCC(c4noc5ccccc45)CC3)nc(NC3(CO)CC3)c21 (stereo not drawn) [Example 31] |
|  | 96% | [O-][S+]1CCc2nc(N3CCC(c4noc5cc(F)ccc45)CC3)nc(NC3CCOCC3)c21 (stereo not drawn) [Example 121] |
|  | 95% | [O-][S+]1CCc2nc(N3CCC(O)(c4cc(F)cc(F)c4)CC3)nc(NC3(CO)CC3)c21 (stereo not drawn) [Example 33] |
|  | 95% | CC(C)[C@H](CO)Nc1nc(N2CCC(c3noc4ccc(F)cc34)CC2)nc2c1[S+]([O-])CC2 (stereo partly drawn) [Example 153] |
| 89% |  | [O-][S+]1CCc2nc(N3CCC(COCc4ccccc4)(c4ccc(Cl)cc4)CC3)nc(Nc3cccc(F)c3)c21 (stereo not drawn) [Example 306, {2-[4-benzyloxymethyl-4-(4-chlorophenyl)-piperidin-1-yl]-5-oxo-6,7-dihydro-5H-5λ^4-thieno[3,2-d]pyrimidin-4-yl}-(3-fluorophenyl)-amine] |
| 96% |  | Cn1cc(C2CCN(c3nc4c(c(NC5CCOCC5)n3)[S+]([O-])CC4)CC2)c2ccccc21 (stereo not drawn) [Example 193] |
|  | 93% | CC(C)c1noc(C2CCN(c3nc4c(c(NC5CCOCC5)n3)[S+]([O-])CC4)CC2)n1 (stereo not drawn) [Example 129] |
| 93% |  | CN1C[C@@H](Nc2nc(N3CCC(CO)(c4ccc(Cl)cc4)CC3)nc3c2[S+]([O-])CC3)CCC1=O (stereo partly drawn) [Example 246, 5-{2-[4-(4-Chlorophenyl)-4-Hydroxymethylpiperidin-1-Yl]-5-Oxo-6,7-Dihydro-5H-5λ^4-Thieno[3,2-d]Pyrimidin-4-Ylamino}-1-Methyl Piperidin-2-One] |
|  | 95% | [O-][S+]1CCc2nc(N3CCC(c4cccc(F)c4)CC3)nc(NC3(CO)CC3)c21 (stereo not drawn) [Example 9] |
| 92% |  | CN1C[C@@H](Nc2nc(N3CCC(Oc4ccc(F)cc4)CC3)nc3c2[S+]([O-])CC3)CCC1=O (stereo partly drawn) [Example 169] |
| 94% |  | COC1(c2cc(F)cc(F)c2)CCN(c2nc3c(c(N[C@H]4CCC(=O)N(C)C4)n2)[S+]([O-])CC3)CC1 (stereo partly drawn) [Example 273, 5-{2-[4-(3,5-difluorophenyl)-4-methoxypiperidin-1-yl]-5-oxo-6,7-dihydro-5H-5λ^4-thieno[3,2-d]pyrimidin-4-ylamino}-1-methylpiperidin-2-one] |
| 91% |  | [O-][S+]1CCc2nc(N3CCC(OCc4ccccc4)(c4ccc(Cl)cc4)CC3)nc(NC3CCOCC3)c21 (stereo not drawn) [Example 319] |
| 91% |  | [O-][S+]1CCc2nc(N3CCC(OCc4ccccc4)CC3)nc(NC3CCOCC3)c21 (stereo not drawn) [Example 172] |
| 92% |  | [O-][S+]1CCc2nc(N3CCC(COCc4ccccc4)(c4ccc(Cl)cc4)CC3)nc(NC3CCOCC3)c21 (stereo not drawn) [Example 310] |

| inhibition at 1 µM [1] | inhibition at 1 µM [2] | Structure (SMILES) |
| --- | --- | --- |
|  | 64% | CC(C)[C@H](CO)Nc1nc(N2CCC3(CC2)OCc2ccccc23)nc2c1[S+]([O-])CC2 (stereo partly drawn) [Example 156] |
|  | 96% | [O-][S+]1CCc2nc(N3CCC(c4c[nH]c5ccccc45)CC3)nc(NC3CCOCC3)c21 (stereo not drawn) [Example 56] |
|  | 95% | [O-][S+]1CCc2nc(N3CCC(c4nnc(-c5ccc(F)cc5)o4)CC3)nc(Nc3cccc(F)c3)c21 (stereo not drawn) [Example 143] |
|  | 96% | N#Cc1cccc(C2CCN(c3nc4c(c(Nc5cccc(F)c5)n3)[S+]([O-])CC4)CC2)c1 (stereo not drawn) [Example 138] |
|  | 94% | COC(=O)c1ccc(C2CCN(c3nc4c(c(N[C@@H](CO)C(C)C)n3)[S+]([O-])CC4)CC2)cc1 (stereo partly drawn) [Example 150] |
|  | 96% | Cc1noc(C2CCN(c3nc4c(c(N[C@H]5CCC(=O)N(C)C5)n3)[S+]([O-])CC4)CC2)n1 (stereo partly drawn) [Example 53] |
| 96% |  | COC(=O)C1(c2ccccc2)CCN(c2nc3c(c(N[C@H]4CCC(=O)N(C)C4)n2)[S+]([O-])CC3)CC1 (stereo partly drawn) [Example 205, methyl 1-[4-(1-methyl-6-oxopiperidin-3-ylamino)-5-oxo-6,7-dihydro-5H-5λ^4-thieno[3,2-d]pyrimidin-2-yl]-4-phenylpiperidine-4-carboxylate] |
| 92% |  | O=C(O)c1ccc(OC2CCN(c3nc4c(c(NC5CCOCC5)n3)[S+]([O-])CC4)CC2)cc1 (stereo not drawn) [Example 184, 4-{1-[5-Oxo-4-(Tetrahydropyran-4-Ylamino)-6,7-Dihydro-5H-5λ^4-Thieno[3,2-d]Pyrimidin-2-Yl]-Piperidin-4-Yloxy}-Benzoic Acid] |
|  | 93% | [O-][S+]1CCc2nc(N3CCC(c4cc(Cl)cc(Cl)c4)CC3)nc(NC3CCOCC3)c21 (stereo not drawn) [Example 97, {2-[4-(3,5-Dichlorophenyl)-Piperidin-1-Yl]-5-Oxo-6,7-Dihydro-5H-5λ^4-Thieno[3,2-d]Pyrimidin-4-Yl}-(Tetrahydropyran-4-Yl)-Amine] |
| 80% |  | CC(C)(NC(=O)c1ccc(C2CCN(c3nc4c(c(NC5CCOCC5)n3)[S+]([O-])CC4)CC2)cc1)c1ccncc1 (stereo not drawn) [Example 223] |
| 95% |  | CCCN1C[C@@H](Nc2nc(N3CCC(c4ccc(Cl)cc4)CC3)nc3c2[S+]([O-])CC3)CCC1=O (stereo partly drawn) [Example 201, 5-{2-[4-(4-chlorophenyl)-piperidin-1-yl]-5-oxo-6,7-dihydro-5H-5λ^4-thieno[3,2-d]pyrimidin-4-ylamino}-1-propylpiperidin-2-one] |
|  | 92% | [O-][S+]1CCc2nc(N3CCC(c4ccc(F)cc4F)CC3)nc(NC3CCOCC3)c21 (stereo not drawn) [Example 90, {2-[4-(2,4-Difluorophenyl)-Piperidin-1-Yl]-5-Oxo-6,7-Dihydro-5H-5λ^4-Thieno[3,2-d]Pyrimidin-4-Yl}-(Tetrahydropyran-4-Yl)-Amine] |
| 92% |  | CN(CC1(c2ccccc2)CCN(c2nc3c(c(NC4(CO)CC4)n2)[S+]([O-])CC3)CC1)S(C)(=O)=O (stereo not drawn) [Example 330] |
| 92% |  | [O-][S+]1CCc2nc(N3CCC(c4ccccc4)CC3)nc(NC3(CO)CC3)c21 (stereo not drawn) [Example 164] |
|  | 93% | CC(C)[C@H](CO)Nc1nc(N2CCC(c3cccc(O)c3)CC2)nc2c1[S+]([O-])CC2 (stereo partly drawn) [Example 17] |
| 86% |  | CC(C)[C@H](CO)Nc1nc(N2CCC(CO)(c3ccc(Cl)cc3)CC2)nc2c1[S+]([O-])CC2 (stereo partly drawn) [Example 300] |
|  | 95% | [O-][S+]1CCc2nc(N3CCC(c4nc5cc(Cl)ccc5s4)CC3)nc(Nc3cccc(F)c3)c21 (stereo not drawn) [Example 134] |
| 93% |  | [O-][S+]1CCc2nc(N3CCC(c4nc5c(o4)CCCC5)CC3)nc(NC3(CO)CC3)c21 (stereo not drawn) [Example 328] |
|  | 83% | CC(C)[C@H](CO)Nc1nc(N2CCC(c3ccncc3)CC2)nc2c1[S+]([O-])CC2 (stereo partly drawn) [Example 19, (R)-3-Methyl-2-[5-Oxo-2-(3.4.5.6-Tetrahydro-2H-[4,4′]Bipyridinyl-1-Yl)-6,7-Dihydro-5H-5λ^4-Thieno[3,2-d]Pyrimidin-4-Ylamino]-Butan-1-Ol] |
| 89% |  | CS(=O)(=O)NCC1(c2ccccc2)CCN(c2nc3c(c(NC4(CO)CC4)n2)[S+]([O-])CC3)CC1 (stereo not drawn) [Example 324] |
|  | 96% | [O-][S+]1CCc2nc(N3CCC(c4cc(-c5ccco5)n[nH]4)CC3)nc(NC3CCOCC3)c21 (stereo not drawn) [Example 130] |
| 92% |  | [O-][S+]1CCc2nc(N3CCC(Oc4ccc(Cl)c(Cl)c4)CC3)nc(NC3CCOCC3)c21 (stereo not drawn) [Example 181] |
| 91% |  | CC(C)[C@H](CO)Nc1nc(N2CCC(C(=O)c3ccc(F)cc3)(c3ccc(F)cc3)CC2)nc2c1[S+]([O-])CC2 (stereo partly drawn) [Example 298] |
|  | 95% | N#CC1(c2ccccc2)CCN(c2nc3c(c(NC4CCOCC4)n2)[S+]([O-])CC3)CC1 (stereo not drawn) [Example 70] |

From patent US8754073B2, “Substituted piperazino-dihydrothienopyrimidines” (Boehringer Ingelheim International GmbH, priority 2007, dated 2014)
